Measurements published in patent US9108921B2, “Therapeutic compounds and compositions” (AGIOS PHARMACEUTICALS, INC, priority 2014, dated 2015).

Key:
[1] = target: PKR R532W (Homo sapiens, UniProt P30613, R532W); assay: PKR Mutant Assay, AC50 against PKR R532W; type: biochemical; conditions: mutant PKR R532W enzyme
Procedure, shortened: (§1)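 Human PKR mutant enzyme (80-400 ng/well) was preincubated 60 min at room temperature with compound (11-point, 3-fold series from 100 μM top, 1% DMSO) in 100 mM KCl, 50 mM Tris pH 7.5, 5 mM MgCl2, 1 mM DTT, 0.03% BSA. ADP (0.22-1.65 mM) started the reaction, with PEP 0.1-0.5 mM.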

[2] = target: T1, PKR WT (Homo sapiens, UniProt P30613); assay: PKR WT cell based AC50 assay; conditions: wild type PKR
[3] = target: T1, PKR WT; assay: PKR WT enzymatic AC50 assay; type: biochemical; conditions: wild type PKR
Procedure, shortened: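 Human PKR (WT or mutant, 80-400 ng/well) in 50 mM Tris pH 7.5, 100 mM KCl, 5 mM MgCl2, 1 mM DTT, 0.03% BSA with PEP 0.1-0.5 mM, NADH 180 uM and LDH, preincubated 60 min at room temperature with compound (11-point 3-fold series from 100 μM final, 1% DMSO). ADP 0.22-1.65 mM started reaction; A340 followed.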

[4] = target: PKR R510Q (Homo sapiens, UniProt P30613, R510Q); assay: PKR Mutant Assay, AC50 against PKR R510Q; type: biochemical; conditions: mutant PKR R510Q enzyme
Procedure, shortened: as §1

Measured: AC50

Chain of PKR R532W (P30613 whole entry R532W): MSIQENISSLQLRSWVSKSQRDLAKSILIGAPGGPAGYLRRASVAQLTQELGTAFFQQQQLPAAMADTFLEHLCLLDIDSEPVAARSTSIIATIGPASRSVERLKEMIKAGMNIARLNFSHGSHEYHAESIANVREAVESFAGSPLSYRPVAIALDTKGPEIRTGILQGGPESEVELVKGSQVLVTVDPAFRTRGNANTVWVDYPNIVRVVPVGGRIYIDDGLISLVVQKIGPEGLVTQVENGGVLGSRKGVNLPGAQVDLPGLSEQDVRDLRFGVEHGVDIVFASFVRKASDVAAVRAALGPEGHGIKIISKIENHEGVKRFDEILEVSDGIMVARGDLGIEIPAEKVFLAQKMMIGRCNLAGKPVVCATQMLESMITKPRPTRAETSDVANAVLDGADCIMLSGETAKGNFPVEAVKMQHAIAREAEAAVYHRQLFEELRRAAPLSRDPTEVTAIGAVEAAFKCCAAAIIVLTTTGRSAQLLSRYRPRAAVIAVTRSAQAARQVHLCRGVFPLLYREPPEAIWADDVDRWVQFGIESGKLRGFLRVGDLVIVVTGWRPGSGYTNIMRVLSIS
Chain of PKR R510Q (P30613 whole entry R510Q): as the sequence (P30613 whole entry R532W) above, with R510Q, W532R counted along it
T1 sequence (P30613 whole entry): as the sequence (P30613 whole entry R532W) above, with W532R counted along it

O=C(c1ccc(NS(=O)(=O)c2cccc3cccnc23)cc1)N1CCC(O)(c2cccc(F)c2Cl)CC1 [Compound 123, N-[4-[4-(2-chloro-3-fluoro-phenyl)-4-hydroxy-piperidine-1-carbonyl]phenyl]quinoline-8-sulfonamide]
< 100 nM: all assays above

O=C(c1ccc(NS(=O)(=O)c2cccc3cccnc23)cc1)N1CCC(O)(CC2CCC2)CC1 [Compound 124, N-(4-(4-(cyclobutylmethyl)-4-hydroxypiperidine-1-carbonyl)phenyl)quinoline-8-sulfonamide]
< 100 nM: all assays above

O=C(c1ccc(NS(=O)(=O)c2cccc3scnc23)cc1)N1CCC(O)(Cc2ccccc2C(F)(F)F)CC1 [Compound 125]
< 100 nM: all assays above

O=C(c1ccc(NS(=O)(=O)c2cccc3cccnc23)cc1)N1CCC(O)(c2ccccc2C(F)(F)F)CC1 [Compound 126, N-(4-(4-hydroxy-4-(2-(trifluoromethyl)phenyl)piperidine-1-carbonyl)phenyl)quinoline-8-sulfonamide]
< 100 nM: all assays above

CCc1ccccc1C1(O)CCN(C(=O)c2ccc(NS(=O)(=O)c3cccc4cccnc34)cc2)CC1 [Compound 127, N-(4-(4-(2-ethylphenyl)-4-hydroxypiperidine-1-carbonyl)phenyl)quinoline-8-sulfonamide]
< 100 nM: all assays above

O=C(c1ccc(NS(=O)(=O)c2cccc3cc(F)cnc23)cc1)N1CCC(O)(Cc2ccccc2)CC1 [Compound 128, N-(4-(4-benzyl-4-hydroxypiperidine-1-carbonyl)phenyl)-3-fluoroquinoline-8-sulfonamide]
< 100 nM: all assays above

Cc1nc(F)ccc1C1(O)CCN(C(=O)c2ccc(NS(=O)(=O)c3cccc4cccnc34)cc2)CC1 [Compound 129, N-(4-(4-(6-fluoro-2-methylpyridin-3-yl)-4-hydroxypiperidine-1-carbonyl)phenyl)quinoline-8-sulfonamide]
< 100 nM: all assays above

CC(C)(C)CC1(O)CCN(C(=O)c2ccc(NS(=O)(=O)c3cccc4nccnc34)cc2)CC1 [Compound 130, N-(4-(4-hydroxy-4-neopentylpiperidine-1-carbonyl)phenyl)quinoxaline-5-sulfonamide]
< 100 nM: all assays above

O=C(c1ccc(NS(=O)(=O)c2cccc3cccnc23)cc1)N1CCC(O)(Cc2ccccc2)CC1 [Compound 131, N-(4-(4-benzyl-4-hydroxypiperidine-1-carbonyl)phenyl)quinoline-8-sulfonamide]
< 100 nM: all assays above

O=C(c1ccc(NS(=O)(=O)c2cccc3cccnc23)cc1)N1CCC(O)(c2ccc(F)c(Br)n2)CC1 [Compound 133, N-(4-(4-(6-bromo-5-fluoropyridin-2-yl)-4-hydroxypiperidine-1-carbonyl)phenyl)quinoline-8-sulfonamide]
< 100 nM: all assays above
